Measurements as given in PMC11277489, “Novel Piperazine Derivatives of Vindoline as Anticancer Agents” (International Journal of Molecular Sciences, 2024).

What was measured:
SW-620 = experiment: NCI60 one-dose screen (10 μM), Colon Cancer; assay type: cell-based; conditions: Homo sapiens; 10 μM; SW-620, Colon Cancer; read-out: Growth percent rate
MOLT-4 = experiment: NCI60 one-dose screen (10 μM), Leukemia; assay type: cell-based, human; conditions: Homo sapiens; 10 μM; MOLT-4, Leukemia; read-out: Growth percent rate
NCI-H23 = experiment: NCI60 one-dose screen (10 μM), Non-small Cell Lung Cancer; assay type: cell-based; conditions: Homo sapiens; 10 μM; NCI-H23, Non-small Cell Lung Cancer; read-out: Growth percent rate
HCT-116 = experiment: NCI60 one-dose screen (10 μM), Colon Cancer; assay type: cell-based; conditions: Homo sapiens; 10 μM; HCT-116, Colon Cancer; read-out: Growth percent rate
M14 = experiment: NCI60 one-dose screen (10 μM), Melanoma; assay type: cell-based; conditions: Homo sapiens; 10 μM; M14, Melanoma; read-out: Growth percent rate
HCT-15 = experiment: NCI60 one-dose screen (10 μM), Colon Cancer; assay type: cell-based; conditions: Homo sapiens; 10 μM; HCT-15, Colon Cancer; read-out: Growth percent rate
OVCAR-3 = experiment: NCI60 one-dose screen (10 μM), Ovarian Cancer; assay type: cell-based; conditions: Homo sapiens; 10 μM; OVCAR-3, Ovarian Cancer; read-out: Growth percent rate
SK-MEL-28 = experiment: NCI60 one-dose screen (10 μM), Melanoma; assay type: cell-based; conditions: Homo sapiens; 10 μM; SK-MEL-28, Melanoma; read-out: Growth percent rate
RPMI-8226 = experiment: NCI60 one-dose screen (10 μM), Leukemia; assay type: cell-based; conditions: Homo sapiens; 10 μM; RPMI-8226, Leukemia; read-out: Growth percent rate
SK-MEL-5 = experiment: NCI60 one-dose screen (10 μM), Melanoma; assay type: cell-based, human; conditions: Homo sapiens; 10 μM; SK-MEL-5, Melanoma; read-out: Growth percent rate
HL-60(TB) = experiment: NCI60 one-dose screen (10 μM), Leukemia; assay type: cell-based; conditions: Homo sapiens; 10 μM; HL-60(TB), Leukemia; read-out: Growth percent rate
SNB-19 = experiment: NCI60 one-dose screen (10 μM), CNS Cancer; assay type: cell-based; conditions: Homo sapiens; 10 μM; SNB-19, CNS Cancer; read-out: Growth percent rate
IGROV1 = experiment: NCI60 one-dose screen (10 μM), Ovarian Cancer; assay type: cell-based; conditions: Homo sapiens, IGROV-1; 10 μM; IGROV1, Ovarian Cancer; read-out: Growth percent rate
CCRF-CEM = experiment: NCI60 one-dose screen (10 μM), Leukemia; assay type: cell-based; conditions: Homo sapiens, 10 μM, Leukemia, read-out: Growth percent rate
SK-MEL-2 = experiment: NCI60 one-dose screen (10 μM), Melanoma; assay type: cell-based; conditions: Homo sapiens; 10 μM; SK-MEL-2, Melanoma; read-out: Growth percent rate
SN12C = experiment: NCI60 one-dose screen (10 μM), Renal Cancer; assay type: cell-based; conditions: Homo sapiens, 10 μM, Renal Cancer, read-out: Growth percent rate
HT29 = experiment: NCI60 one-dose screen (10 μM), Colon Cancer; assay type: cell-based; conditions: Homo sapiens, HT-29; 10 μM; HT29, Colon Cancer; read-out: Growth percent rate
SF-268 = experiment: NCI60 one-dose screen (10 μM), CNS Cancer; assay type: cell-based; conditions: Homo sapiens; 10 μM; SF-268, CNS Cancer; read-out: Growth percent rate
CAKI-1 = experiment: NCI60 one-dose screen (10 μM), Renal Cancer; assay type: cell-based; conditions: Homo sapiens; 10 μM; CAKI-1, Renal Cancer; read-out: Growth percent rate
EKVX = experiment: NCI60 one-dose screen (10 μM), Non-small Cell Lung Cancer; assay type: cell-based; conditions: Homo sapiens, 10 μM, Non-small Cell Lung Cancer, read-out: Growth percent rate
KM12 = experiment: NCI60 one-dose screen (10 μM), Colon Cancer; assay type: cell-based, human; conditions: Homo sapiens; 10 μM; KM12, Colon Cancer; read-out: Growth percent rate
OVCAR-4 = experiment: NCI60 one-dose screen (10 μM), Ovarian Cancer; assay type: cell-based; conditions: Homo sapiens; 10 μM; OVCAR-4, Ovarian Cancer; read-out: Growth percent rate
NCI-H322M = experiment: NCI60 one-dose screen (10 μM), Non-small Cell Lung Cancer; assay type: cell-based; conditions: Homo sapiens, 10 μM, Non-small Cell Lung Cancer, read-out: Growth percent rate
UACC-257 = experiment: NCI60 one-dose screen (10 μM), Melanoma; assay type: cell-based; conditions: Homo sapiens; 10 μM; UACC-257, Melanoma; read-out: Growth percent rate
786–0 = experiment: NCI60 one-dose screen (10 μM), Renal Cancer; assay type: cell-based; conditions: Homo sapiens; 10 μM; 786-0, Renal Cancer; read-out: Growth percent rate
RXF 393 = experiment: NCI60 one-dose screen (10 μM), Renal Cancer; assay type: cell-based, human; conditions: Homo sapiens; 10 μM; RXF 393, Renal Cancer; read-out: Growth percent rate
HS 578T = experiment: NCI60 one-dose screen (10 μM), Breast Cancer; assay type: cell-based; conditions: Homo sapiens; 10 μM; HS 578T, Breast Cancer; read-out: Growth percent rate
A549/ATCC = experiment: NCI60 one-dose screen (10 μM), Non-small Cell Lung Cancer; assay type: cell-based; conditions: Homo sapiens; 10 μM; A549/ATCC, Non-small Cell Lung Cancer; read-out: Growth percent rate
COLO 205 = experiment: NCI60 one-dose screen (10 μM), Colon Cancer; assay type: cell-based, human; conditions: Homo sapiens; 10 μM; COLO 205, Colon Cancer; read-out: Growth percent rate
SF-539 = experiment: NCI60 one-dose screen (10 μM), CNS Cancer; assay type: cell-based, human; conditions: Homo sapiens; 10 μM; SF-539, CNS Cancer; read-out: Growth percent rate
NCI-H522 = experiment: NCI60 one-dose screen (10 μM), Non-small Cell Lung Cancer; assay type: cell-based; conditions: Homo sapiens; 10 μM; NCI-H522, Non-small Cell Lung Cancer; read-out: Growth percent rate
K-562 = experiment: NCI60 one-dose screen (10 μM), Leukemia; assay type: cell-based; conditions: Homo sapiens, K562; 10 μM; K-562, Leukemia; read-out: Growth percent rate
MDA-MB-435 = experiment: NCI60 one-dose screen (10 μM), Melanoma; assay type: cell-based; conditions: Homo sapiens; 10 μM; MDA-MB-435, Melanoma; read-out: Growth percent rate
ACHN = experiment: NCI60 one-dose screen (10 μM), Renal Cancer; assay type: cell-based; conditions: Homo sapiens, 10 μM, Renal Cancer, read-out: Growth percent rate
HOP-62 = experiment: NCI60 one-dose screen (10 μM), Non-small Cell Lung Cancer; assay type: cell-based; conditions: Homo sapiens; 10 μM; HOP-62, Non-small Cell Lung Cancer; read-out: Growth percent rate
MALME-3M = experiment: NCI60 one-dose screen (10 μM), Melanoma; assay type: cell-based; conditions: Homo sapiens; 10 μM; MALME-3M, Melanoma; read-out: Growth percent rate
HCC-2998 = experiment: NCI60 one-dose screen (10 μM), Colon Cancer; assay type: cell-based; conditions: Homo sapiens; 10 μM; HCC-2998, Colon Cancer; read-out: Growth percent rate
LOX IMVI = experiment: NCI60 one-dose screen (10 μM), Melanoma; assay type: cell-based, human; conditions: Homo sapiens; 10 μM; LOX IMVI, Melanoma; read-out: Growth percent rate
OVCAR-8 = experiment: NCI60 one-dose screen (10 μM), Ovarian Cancer; assay type: cell-based; conditions: Homo sapiens; 10 μM; OVCAR-8, Ovarian Cancer; read-out: Growth percent rate
MCF7 = experiment: NCI60 one-dose screen (10 μM), Breast Cancer; assay type: cell-based; conditions: Homo sapiens; 10 μM; MCF7, Breast Cancer; read-out: Growth percent rate
TK-10 = experiment: NCI60 one-dose screen (10 μM), Renal Cancer; assay type: cell-based; conditions: Homo sapiens; 10 μM; TK-10, Renal Cancer; read-out: Growth percent rate
SF-295 = experiment: NCI60 one-dose screen (10 μM), CNS Cancer; assay type: cell-based; conditions: Homo sapiens; 10 μM; SF-295, CNS Cancer; read-out: Growth percent rate

## CCC12C=CCN3CCC4(c5ccc(OC)cc5N(C)C4C(O)(C(=O)OC)C1OC(=O)CCCBr)C32 (stereo not drawn) [Compound 14, 17-(O-4-bromobutanoyl)vindoline]
SW-620
  activity at 10 µM: 100%
MOLT-4
  activity at 10 µM: 76.1%
NCI-H23
  activity at 10 µM: 93.1%
HCT-116
  activity at 10 µM: 87%
M14
  activity at 10 µM: 95.7%
HCT-15
  activity at 10 µM: 96.8%
OVCAR-3
  activity at 10 µM: 99.7%
SK-MEL-28
  activity at 10 µM: 105%
RPMI-8226
  activity at 10 µM: 91.4%
SK-MEL-5
  activity at 10 µM: 84.3%
HL-60(TB)
  activity at 10 µM: 90.5%
SNB-19
  activity at 10 µM: 89.3%
IGROV1
  activity at 10 µM: 100%
CCRF-CEM
  activity at 10 µM: 99.8%
SK-MEL-2
  activity at 10 µM: 103%
SN12C
  activity at 10 µM: 97.4%
HT29
  activity at 10 µM: 94.1%
SF-268
  activity at 10 µM: 83.2%
CAKI-1
  activity at 10 µM: 80.9%
EKVX
  activity at 10 µM: 91.2%
KM12
  activity at 10 µM: 100%
OVCAR-4
  activity at 10 µM: 83.9%
NCI-H322M
  activity at 10 µM: 101%
UACC-257
  activity at 10 µM: 88.4%
786–0
  activity at 10 µM: 94.3%
RXF 393
  activity at 10 µM: 99.5%
HS 578T
  activity at 10 µM: 94.5%
A549/ATCC
  activity at 10 µM: 89.4%
COLO 205
  activity at 10 µM: 101%
SF-539
  activity at 10 µM: 91.9%
NCI-H522
  activity at 10 µM: 79%
K-562
  activity at 10 µM: 79.7%
MDA-MB-435
  activity at 10 µM: 104%
ACHN
  activity at 10 µM: 99.8%
HOP-62
  activity at 10 µM: 101%
MALME-3M
  activity at 10 µM: 101%
HCC-2998
  activity at 10 µM: 93.8%
LOX IMVI
  activity at 10 µM: 88.6%
OVCAR-8
  activity at 10 µM: 93.4%
MCF7
  activity at 10 µM: 80.3%
TK-10
  activity at 10 µM: 100%
SF-295
  activity at 10 µM: 86.9%
